Converted amounts (≈) assume the structure as drawn.
Experiments:
Format in all cases: cell-based
[1] = test system: Escherichia coli NIHJ; assay: MIC, plate method, standard strains; conditions: Table 4, standard strain; unit assumed
Procedure, shortened: (§1)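 Agar plate dilution on Heart infusion agar (pH 7.4); inoculum 10^4 cells per plate from a 10^6 cells/ml suspension. MIC taken as the lowest concentration inhibiting growth.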

[2] = test system: Klebsiella pneumoniae; assay: MIC, plate method, standard strains; conditions: Table 4, standard strain; unit assumed
Procedure, shortened: as §1

[3] = test system: Proteus vulgaris 3027; assay: MIC, plate method, standard strains; conditions: Table 4, standard strain; unit assumed
Procedure, shortened: as §1

[4] = test system: Pseudomonas aeruginosa I.F.O.; assay: MIC, plate method, standard strains; conditions: Table 4, standard strain; unit assumed
Procedure, shortened: as §1

[5] = test system: Staphylococcus aureus 209p; assay: MIC, plate method, standard strains; conditions: Table 4, standard strain; unit assumed
Procedure, shortened: as §1

[6] = test system: Staphylococcus aureus; assay: MIC against clinical isolates; conditions: Table 6-1, clinical isolate; unit assumed
[7] = test system: Escherichia coli; assay: MIC against clinical isolates; conditions: Table 6-2, clinical isolate; unit assumed
[8] = test system: Pseudomonas aeruginosa; assay: MIC against clinical isolates; conditions: unit assumed; for MIC Pseudomonas aeruginosa GN / MIC Pseudomonas aeruginosa GN4 / MIC Pseudomonas aeruginosa GN 82 / MIC Pseudomonas aeruginosa GN 221 / MIC Pseudomonas aeruginosa GN 376 / MIC Pseudomonas aeruginosa GN 1035 / MIC Pseudomonas aeruginosa GN 1091 / MIC Pseudomonas aeruginosa GN 2565: Table 6-3, clinical isolate; for MIC Pseudomonas aeruginosa GN: strain number not given; for MIC Pseudomonas aeruginosa S-1: Table 6-4, clinical isolate
[9] = test system: Klebsiella pneumoniae; assay: MIC against clinical isolates; conditions: Table 6-4, clinical isolate; unit assumed
[10] = test system: Proteus mirabilis; assay: MIC against clinical isolates; conditions: Table 6-5, clinical isolate; unit assumed
[11] = test system: Proteus morganii; assay: MIC against clinical isolates; conditions: Table 6-5, clinical isolate; unit assumed
[12] = test system: Proteus vulgaris; assay: MIC against clinical isolates; conditions: Table 6-5, clinical isolate; unit assumed
[13] = test system: Proteus rettgeri; assay: MIC against clinical isolates; conditions: Table 6-5, clinical isolate; unit assumed

What does the source list for `CCN1CCN(C(=O)NC(C(=O)NC2C(=O)N3C(C(=O)O)=C(CSc4nnnn4CC)CSC23)c2ccc(O)cc2)C(=O)C1=O` (single isomer, unassigned) [Compound No. 78]?
MIC Escherichia coli NIHJ [1]: < 0.1 µg/mL; MIC Klebsiella pneumoniae [2]: 0.2 µg/mL (≈ 0.303 µM); MIC Proteus vulgaris 3027 [3]: 0.79 µg/mL (≈ 1.2 µM); MIC Pseudomonas aeruginosa I.F.O. [4]: 12.5 µg/mL (≈ 18.9 µM); MIC Staphylococcus aureus 209p [5]: 3.13 µg/mL (≈ 4.74 µM); MIC Staphylococcus aureus F-1 [6]: 3.13 µg/mL (≈ 4.74 µM); MIC Staphylococcus aureus MS 8588 [6]: 3.13 µg/mL (≈ 4.74 µM); MIC Staphylococcus aureus MS 8596 [6]: 3.13 µg/mL (≈ 4.74 µM); MIC Staphylococcus aureus MS 8619 [6]: 1.56 µg/mL (≈ 2.36 µM); MIC Staphylococcus aureus MS 8684 [6]: 1.56 µg/mL (≈ 2.36 µM); MIC Escherichia coli GN 3435 [7]: 0.39 µg/mL (≈ 0.591 µM); MIC Escherichia coli GN 3452 [7]: 0.39 µg/mL (≈ 0.591 µM); MIC Escherichia coli GN 3465 [7]: 1.56 µg/mL (≈ 2.36 µM); MIC Escherichia coli K-2 [7]: 0.78 µg/mL (≈ 1.18 µM); MIC Escherichia coli K-4 [7]: 0.39 µg/mL (≈ 0.591 µM); MIC Pseudomonas aeruginosa GN [8]: 12.5 µg/mL (≈ 18.9 µM); MIC Pseudomonas aeruginosa GN4 [8]: 25 µg/mL (≈ 37.9 µM); MIC Pseudomonas aeruginosa GN 82 [8]: 12.5 µg/mL (≈ 18.9 µM); MIC Pseudomonas aeruginosa GN 221 [8]: 6.25 µg/mL (≈ 9.47 µM); MIC Pseudomonas aeruginosa GN 376 [8]: 12.5 µg/mL (≈ 18.9 µM); MIC Pseudomonas aeruginosa GN 1035 [8]: 25 µg/mL (≈ 37.9 µM); MIC Pseudomonas aeruginosa GN 1091 [8]: 25 µg/mL (≈ 37.9 µM); MIC Pseudomonas aeruginosa GN 2565 [8]: 12.5 µg/mL (≈ 18.9 µM); MIC Pseudomonas aeruginosa S-1 [8]: 25 µg/mL (≈ 37.9 µM); MIC Klebsiella pneumoniae GN 917 [9]: 0.39 µg/mL (≈ 0.591 µM); MIC Klebsiella pneumoniae GN 4081 [9]: 3.13 µg/mL (≈ 4.74 µM); MIC Proteus mirabilis [10]: 1.56 µg/mL (≈ 2.36 µM); MIC Proteus morganii [11]: 1.56 µg/mL (≈ 2.36 µM); MIC Proteus vulgaris [12]: 0.39 µg/mL (≈ 0.591 µM); MIC Proteus rettgeri [13]: 1.56 µg/mL (≈ 2.36 µM)

For `Cn1nnnc1SCC1=C(C(=O)O)N2C(=O)C(NC(=O)C(NC(=O)N3CCN(CCO)C(=O)C3=O)c3ccccc3)C2SC1` (single isomer, unassigned) [Compound No. 82], which MIC Escherichia coli NIHJ [1] is on record?
The MIC Escherichia coli NIHJ was < 0.1 µg/mL.

And the MIC Klebsiella pneumoniae [2]?
The MIC Klebsiella pneumoniae was 0.79 µg/mL (≈ 1.22 µM).

And the MIC Proteus vulgaris 3027 [3]?
Its MIC Proteus vulgaris 3027 is 0.79 µg/mL (≈ 1.22 µM).

And the MIC Pseudomonas aeruginosa I.F.O. [4]?
Its MIC Pseudomonas aeruginosa I.F.O. is 25 µg/mL (≈ 38.7 µM).

And the MIC Staphylococcus aureus 209p [5]?
Its MIC Staphylococcus aureus 209p is 1.57 µg/mL (≈ 2.43 µM).

What about the MIC Staphylococcus aureus F-1 [6] of the same compound?
The MIC Staphylococcus aureus F-1 was 3.13 µg/mL (≈ 4.85 µM).

And the MIC Staphylococcus aureus MS 8588 [6]?
The MIC Staphylococcus aureus MS 8588 was 3.13 µg/mL (≈ 4.85 µM).

And the MIC Staphylococcus aureus MS 8596 [6]?
Its MIC Staphylococcus aureus MS 8596 is 3.13 µg/mL (≈ 4.85 µM).

What about the MIC Staphylococcus aureus MS 8619 [6] of the same compound?
Its MIC Staphylococcus aureus MS 8619 is 1.56 µg/mL (≈ 2.42 µM).

What about the MIC Staphylococcus aureus MS 8684 [6] of the same compound?
Its MIC Staphylococcus aureus MS 8684 is 1.56 µg/mL (≈ 2.42 µM).

And the MIC Escherichia coli GN 3435 [7]?
Its MIC Escherichia coli GN 3435 is 1.56 µg/mL (≈ 2.42 µM).

What about the MIC Escherichia coli GN 3452 [7] of the same compound?
Its MIC Escherichia coli GN 3452 is 1.56 µg/mL (≈ 2.42 µM).

And the MIC Escherichia coli GN 3465 [7]?
The MIC Escherichia coli GN 3465 was 6.25 µg/mL (≈ 9.68 µM).

And the MIC Escherichia coli K-2 [7]?
Its MIC Escherichia coli K-2 is 6.25 µg/mL (≈ 9.68 µM).

What about the MIC Escherichia coli K-4 [7] of the same compound?
Its MIC Escherichia coli K-4 is 1.56 µg/mL (≈ 2.42 µM).

And the MIC Pseudomonas aeruginosa GN [8]?
Its MIC Pseudomonas aeruginosa GN is 50 µg/mL (≈ 77.4 µM).

And the MIC Pseudomonas aeruginosa GN4 [8]?
The MIC Pseudomonas aeruginosa GN4 was 50 µg/mL (≈ 77.4 µM).

And the MIC Pseudomonas aeruginosa GN 82 [8]?
The MIC Pseudomonas aeruginosa GN 82 was 50 µg/mL (≈ 77.4 µM).

What about the MIC Pseudomonas aeruginosa GN 221 [8] of the same compound?
Its MIC Pseudomonas aeruginosa GN 221 is 25 µg/mL (≈ 38.7 µM).

What about the MIC Pseudomonas aeruginosa GN 376 [8] of the same compound?
The MIC Pseudomonas aeruginosa GN 376 was 25 µg/mL (≈ 38.7 µM).

What about the MIC Pseudomonas aeruginosa GN 1035 [8] of the same compound?
The MIC Pseudomonas aeruginosa GN 1035 was 50 µg/mL (≈ 77.4 µM).

What about the MIC Pseudomonas aeruginosa GN 1091 [8] of the same compound?
Its MIC Pseudomonas aeruginosa GN 1091 is 50 µg/mL (≈ 77.4 µM).

And the MIC Pseudomonas aeruginosa GN 2565 [8]?
Its MIC Pseudomonas aeruginosa GN 2565 is 50 µg/mL (≈ 77.4 µM).

And the MIC Pseudomonas aeruginosa S-1 [8]?
Its MIC Pseudomonas aeruginosa S-1 is 100 µg/mL (≈ 155 µM).

What about the MIC Klebsiella pneumoniae GN 917 [9] of the same compound?
The MIC Klebsiella pneumoniae GN 917 was 1.56 µg/mL (≈ 2.42 µM).

And the MIC Klebsiella pneumoniae GN 4081 [9]?
Its MIC Klebsiella pneumoniae GN 4081 is 6.25 µg/mL (≈ 9.68 µM).

What about the MIC Proteus mirabilis [10] of the same compound?
Its MIC Proteus mirabilis is 3.13 µg/mL (≈ 4.85 µM).

And the MIC Proteus morganii [11]?
Its MIC Proteus morganii is 1.56 µg/mL (≈ 2.42 µM).

And the MIC Proteus vulgaris [12]?
The MIC Proteus vulgaris was 0.78 µg/mL (≈ 1.21 µM).

What about the MIC Proteus rettgeri [13] of the same compound?
Its MIC Proteus rettgeri is 6.25 µg/mL (≈ 9.68 µM).
